{"source": "patent US20060147456A1", "about": "“Induction of apoptosis in toll-like receptor expressing tumor cells” (priority 2004, published 2006)", "type_in_all_cases": "cell-based, human", "key": {"[1]": {"test_system": "Cama-1, SW527, BT483 and MCF-7", "test": "Cell recovery by crystal violet staining, four breast tumor cell lines together", "details": "72 h; 5 μg/ml PGN, 50 μg/ml Poly IC or 10 μg/ml LPS; average of the four cell lines", "method": "(§1) Cell recovery after treatment with TLR ligands was measured by crystal violet staining (Sigma-Aldrich). Cells were plated at 10^4 cells/well in 96 well plates. After 72 hours of culture either with or without TLR ligand, the cells were washed with PBS, fixed in 6% formaldehyde (Sigma-Aldrich) for 20 minutes, washed twice, and then stained with 0.1% crystal violet for 10 minutes. After washes and incubation in 1% SDS for 1 hour, the absorbance was read at 605 nm on a Vmax plate reader (Molecular Devices, Sunnyvale, Calif.). Annexin V staining was performed with an annexin-FITC apoptosis detection kit (BD Pharmingen, San Diego, Calif.) according to the manufacturer's instructions. Sub-diploid cells were detected by staining with 3 μg/mL propidium iodide (PI) (Molecular probes, Eugene, Oreg.), after overnight permeabilization in 70% ethanol. Fluorescence was analyzed by flow cytometry on a FACScalibur (Becton Dickinson, Mountain View, Calif.) equipped with a doublet-discrimination module and using Celiquest Pro software (Becton Dickinson).\nFour human breast tumor cell lines, Cama-1, SW527, BT483 and MCF-7, were analyzed for cell death in response to Poly IC. Cells were cultured for 72 hours with 5 μg/ml PGN, 50 μg/ml Poly IC or 10 μg/ml LPS. Control cells were cultured with PBS. Cytotoxicity was assessed by crystal violet staining and expressed as a percent of control.\nFurthermore, additional TLR ligands were tested to determine any possible effects on cellular toxicity. The ligands tested were PGN, LPS, Flagellin, R848 and CpG. Cells were cultured for 72 hours with 5 μg/ml PGN, 10 μg/ml LPS, 50 ng/ml flagellin, 6 μg/ml R848, 10 μg/ml CpG ODNs, or with PBS as control. Cell recovery was assessed by crystal violet staining and expressed as a percent of control."}, "Cama-1 cells": {"test_system": "Cama-1 cells", "test": "Apoptosis by annexin V staining and flow cytometry", "method": "as §1\nCama-1 cells were plated in 6 well plates at 3×10^5 cells per well. After overnight adherence, siRNA transfections were performed for 5 hours in OptiMEM medium (Life technologies) containing 3 μg/mL lipofectamine 2000 (Invivogen) and 100 nM siRNA. Cells were then washed and cultured for 72 hours in complete medium before treatment with Poly IC and apoptosis analysis. siRNA duplexes specific for TLR3, PKR, IRAK-4, TRAF6 and p65 were purchased from Dharmacon (Lafayette, Colo.) as SMART-Pools. TRIF siRNA was purchased from the same supplier as single oligoduplexes (5′-GCUCUUGUAUCUGMGCAC-3′) (SEQ ID NO: 23). TLR3 and TRIF expression was assessed by PCR (35 cycles: 1 min 94° C., 1 min 55° C., 2 min 72° C.) with Taq PCR ReadyMix (Sigma-Aldrich) using following primers: […]\nTo further investigate the effect of Poly IC treatment on breast tumor cell lines, cell death was analyzed in Cama-1 cells by annexin V staining. Cells were cultured for 24 hours either with or without 5 μg/ml of Poly IC. Apoptosis was measured by annexin V staining and flow cytometry.\nWe also tried to determine the kinetics of Poly IC induced apoptosis. Cama-1 cells were cultured either with or without 5 μg/ml or 50 ng/ml of Poly IC. The percentage of apoptotic (annexin positive) cells in the culture were measured during the following 30 hours. […] Specifically, Poly IC triggered apoptosis in Cama-1 cells beginning 9 hours after Poly IC addition and reaching up to 80% apoptotic cells after 30 hours of treatment.\nPoly AU was analyzed for its effects on apoptosis. Cama-1 cells were cultured for 48 hours either with PBS or with increasing concentrations of Poly AU ranging from 5 ng/ml to 50 μg/ml. Apoptosis was analyzed by measuring the percentage of annexin V positive cells.\nIn order to determine the pathway of Poly IC induced Cama-1 cell toxicity, RNA interference was used to efficiently downregulate expression of TRIF and PKR. Cama-1 cells were plated in 6 well plates at 3×10^5 cells per well. After overnight adherence, siRNA transfections were performed for 5 hours in OptiMEM medium (Life technologies) containing 3 μg/mL lipofectamine 2000 (Invivogen) and 100 nM siRNA. Cells were transfected with either MOCK (water), control scrambled duplex (scr) siRNA, TRIF siRNA or PKR siRNA.\n72 hours after siRNA transfection, Cama-1 cells were cultured for another 24 hours either with or without 5 μg/ml Poly IC. Apoptosis was measured by annexin V staining and expressed as a percentage of apoptotic cells in culture. On average, 10% of control cells (MOCK and scr) that were untreated underwent apoptosis. In contrast, about 75% of control cells (MOCK and scr) that were treated with Poly IC underwent apoptosis.\nTo further investigate TLR3 mediated cytotoxicity, the involvement of the signaling molecules IRAK4 and TRAF6, both downstream mediators of TLR signaling, were assessed. Cama-1 cells were plated in 6 well plates at 3×10^5 cells per well. […]"}, "Caspase 3": {"test_system": "Caspase 3", "test": "Western Blot for Caspase 3 in Cama-1 cells", "details": "Poly IC treatment", "method": "Cama-1 cells were lysed in 1% Nonidet-P40-containing buffer. 20 μg total protein was loaded per lane on SDS-Polyacrylamide gels (Invitrogen). Western Blots (WB) were performed with standard techniques using the antibodies described above. Anti IRAK-4 monoclonal antibodies were generated in the laboratory according to the protocol described in Fossiez et al., “T cell interleukin-17 induces stromal cells to produce proinflammatory and hematopoietic cytokines”, J. Exp. Med., vol. 183(6), pp. 2593-2603 (1996).\nWe next addressed the role of caspases in apoptosis. Cama-1 cells were pre-incubated with 25 μM of the general caspase inhibitor z-VAD-fmk or DMSO for 1 hour before culture for 24 hours with or without 5 μg/ml Poly IC or 25 ng/ml TNF-α (used as a positive control). Apoptosis was measured by annexin V staining and expressed as a percentage of apoptotic cell in the culture.\nIn another experiment, lysates from cells obtained above were analyzed by Western Blot for cleavage of PARP, Caspase 3 and Caspase 8."}}}
{"substance": "polyinosinic-polycytidylic acid [Poly IC]", "values": [{"measurement": "cell recovery, percent of control, on average", "setting": "[1]", "result": 67.5, "unit": "%"}, {"measurement": "apoptotic (annexin positive) cells after 30 hours", "setting": "Cama-1 cells; Cama-1, 5 μg/ml or 50 ng/ml Poly IC, untreated 15%", "result": 80, "unit": "%"}, {"measurement": "percentage of apoptotic cells", "setting": "Cama-1 cells; Cama-1, 25 μM z-VAD-fmk pre-incubation 1 h, 24 h, 5 μg/ml Poly IC or 25 ng/ml TNF-α", "result": 30, "unit": "%"}, {"measurement": "cells stained by Annexin V", "setting": "Cama-1 cells; Cama-1, 24 h, 5 μg/ml Poly IC", "result": "over 70%"}, {"measurement": "percentage of apoptotic cells", "setting": "Cama-1 cells; Cama-1, DMSO pre-incubation 1 h, 24 h, 5 μg/ml Poly IC or 25 ng/ml TNF-α", "result": 70, "unit": "%"}, {"measurement": "percentage of apoptotic cells", "setting": "Cama-1 cells; Cama-1, absence of antibody (Example 11), 24 h, 5 μg/ml Poly IC or 1000 U/ml each IFN-α/IFN-β", "result": 70, "unit": "%"}, {"measurement": "percentage of apoptotic cells", "setting": "Cama-1 cells; Cama-1, absence of antibody (Example 12), 5 μg/ml Poly IC or 25 ng/ml TNF-α", "result": 70, "unit": "%"}, {"measurement": "beginning of apoptosis after Poly IC addition", "setting": "Cama-1 cells; Cama-1, kinetics over 30 hours", "result": 9, "unit": "h"}, {"measurement": "percentage of apoptotic cells", "setting": "Cama-1 cells; Cama-1, pre-incubated 1 h with 20 μg/ml anti-IFN R1 mAb, 24 h, 5 μg/ml Poly IC or 1000 U/ml IFN-α/IFN-β", "result": 30, "unit": "%"}, {"measurement": "percentage of apoptotic cells", "setting": "Cama-1 cells; Cama-1, pre-incubated 1 h with 20 μg/ml isotype control mouse IgG1, 24 h, 5 μg/ml Poly IC or 1000 U/ml IFN-α/IFN-β", "result": 70, "unit": "%"}, {"measurement": "percentage of apoptotic cells", "setting": "Cama-1 cells; Cama-1, pre-incubated with 10 μg/ml CHX, 5 μg/ml Poly IC or 25 ng/ml TNF-α, untreated 15%", "result": 40, "unit": "%"}, {"measurement": "percentage of apoptotic cells", "setting": "Cama-1 cells; Cama-1, pre-incubated with 20 μg/ml neutralizing anti TNF-α mAb, 5 μg/ml Poly IC or 25 ng/ml TNF-α", "result": 65, "unit": "%"}, {"measurement": "percentage of apoptotic cells", "setting": "Cama-1 cells; Cama-1 control cells (MOCK and scr), 24 h with 5 μg/ml Poly IC, untreated 10%", "result": "about 75%"}, {"measurement": "percentage of apoptotic cells", "setting": "Cama-1 cells; Cama-1 control cells (scr), Example 10, 24 h with 5 μg/ml Poly IC, untreated 10%", "result": "about 75%"}, {"measurement": "percentage of apoptotic cells", "setting": "Cama-1 cells; Cama-1 scr group, 24 h, Poly IC 50 ng/ml", "result": 20, "unit": "%"}, {"measurement": "percentage of apoptotic cells", "setting": "Cama-1 cells; Cama-1 scr group, 24 h, Poly IC 5 μg/ml", "result": 70, "unit": "%"}, {"measurement": "percentage of apoptotic cells", "setting": "Cama-1 cells; Cama-1 siRNA p65 group, 24 h, Poly IC 50 ng/ml", "result": 10, "unit": "%"}, {"measurement": "percentage of apoptotic cells", "setting": "Cama-1 cells; Cama-1 siRNA p65 group, 24 h, Poly IC 5 μg/ml", "result": 20, "unit": "%"}, {"measurement": "caspase 3 activation", "setting": "Caspase 3", "result": "activated"}]}
